In paper PMC5481814, “Stapled Voltage-Gated Calcium Channel (CaV) α-Interaction Domain (AID) Peptides Act As Selective Protein–Protein Interaction Inhibitors of CaV Function” (ACS Chemical Neuroscience, 2017):
Starred links: 1 amine or outer side, 2 acyl side, 3 side chain; linkers in the order of their positions; H or OH if unused. Positions of bridges follow the written chain, without caps; N, C: chain ends. Residues, ends and D or L forms follow the SMILES beside them. No end group written: not given here. mXylylene = c1cc(C[*:1])cc(C[*:2])c1

Tests used:
CaVβ2a core = CaVβ2a core (Rattus norvegicus, UniProt Q8VGC3); test: Isothermal titration calorimetry, AID peptide:CaVβ2a binding; settings: for Kd: 150 mM KCl, 10 mM potassium phosphate, 20 μM peptide into 2 μM CaVβ2a core
Text: Having determined that the backbone staples are able to affect AID helix content (Figure 1) and are structurally compatible with the CaVβ-AID interaction (Figure 2), we used isothermal titration calorimetry (ITC) to investigate whether the AID staples impacted binding thermodynamics. […] (Figure 3A, Table 1). This binding reaction is driven by a favorable enthalpic component (ΔH = −15.6 ± 2.4 kcal mol^–1) that is opposed by a large entropic cost (ΔS = −16.7 ± 6.0 cal mol^–1 K^–1) that most likely results from the requirement to reduce the degrees of freedom of the highly disordered ligand upon binding.
Titrations were performed at 15 °C using a VP-ITC microcalorimeter (MicroCal). Samples were dialyzed overnight at 4 °C (Slide-A-Lyzer, 2 kDa molecular weight cutoff, Thermo Scientific) against 150 mM KCl and 10 mM potassium phosphate, pH 7.3. After 30 min centrifugation at 40 000 rpm at 4 °C, protein concentrations were determined by absorbance at 280 nm.[91] All samples were degassed for 5 min prior to loading into the calorimeter. CaV1.2 CaVβ2a core at a concentration of 2 μM was titrated with 20 μM modified or unmodified AID peptide with one 4 μL injection followed by 29 injections of 10 μL of titrant. To correct the baseline, heat of dilution from titrations of injectant into buffer was subtracted. Data were processed with MicroCal Origin 7.0 using a single site binding model.

CaV1.2:CaVβ3 = target: T1, CaV1.2:CaVβ3 (Oryctolagus cuniculus, UniProt P54286); test: Peptide injection competition, two-electrode voltage clamp, CaV1.2:CaVβ3 channels in Xenopus oocytes; format: cell-based, human CaV1.2; Xenopus oocytes; settings: for V1/2, midpoint of activation: Ca2+ charge carrier
T1 construct: expressed in transfected cells; host or cells: Xenopus oocytes (mRNA injection)

[1] = Circular dichroism of AID peptides (helical content); format: physicochemical; settings: 70 μM, 4 °C, 50 mM KCl, 10 mM potassium phosphate, pH 7.3, 2 mm cuvette, triplicate points
Experimental: Circular dichroism spectra were measured in a 2 mm path length quartz cuvette (Hellma), 50 mM KCl, and 10 mM KH2PO4/K2HPO4, pH 7.3, using an Aviv model 215 spectropolarimeter (Aviv Biomedical) equipped with a Peltier temperature controller. Wavelength scans from 320 to 190 nm were taken at 4 °C. Each point was determined in triplicate from the same sample and subtracted by the average of a triplicate buffer scan. Each sample was checked for purity by HPLC. Molar ellipticity was calculated as follows: θ = 100(Δm)/(Cnl), where Δm is the CD signal in millidegrees after buffer subtraction, C is the millimolar peptide concentration, n is the number of residues in the peptide, and l is the cuvette path length in centimeters.

CaV1.2-Y437A:CaVβ2a = CaV1.2-Y437A:CaVβ2a (Rattus norvegicus, UniProt Q8VGC3); test: Peptide injection competition, two-electrode voltage clamp, CaV1.2-Y437A:CaVβ2a channels in Xenopus oocytes; settings: 400 μM peptide; for ti300, percent inactivation at 300 ms / A1, relative amplitude of fast inactivation component / A2, relative amplitude of second inactivation component / τ1, fast inactivation time constant / τ2, second inactivation time constant: +20 mV; for ti300, percent inactivation at 300 ms / V1/2, midpoint of activation: Ca2+ charge carrier; for ti300, percent inactivation at 300 ms / A1, relative amplitude of fast inactivation component / A2, relative amplitude of second inactivation component / τ1, fast inactivation time constant / τ2, second inactivation time constant / V1/2, midpoint of activation / Imax, maximal current amplitude: mean ± SEM
[2] = ITC, 15 °C, pH 7.3, single site model, n = 3 (Cav1.2 AID), 2 (AID-CEN), 3 (AID-CAP)
[3] = 2.8 mM peptide, over 30 min postinjection
[4] = 5 min postinjection, 2.8 mM peptide, +20 mV, double exponential fit, mean ± SEM, N = 6 (AID-CAP), 7 (AID)
[5] = 5 min postinjection, 2.8 mM peptide, +20 mV, monoexponential fit, mean ± SEM, N = 6 (AID-CAP), 7 (AID)
[6] = 5 min postinjection, 2.8 mM peptide, mean ± SEM, N = 6 (AID-CAP), 7 (AID)
[7] = 30 min postinjection, 2.8 mM peptide, +20 mV, monoexponential fit, mean ± SEM, N = 6 (AID-CAP), 7 (AID)
[8] = 30 min postinjection, 2.8 mM peptide, mean ± SEM, N = 6 (AID-CAP), 7 (AID)
[9] = ITC, 15 °C, pH 7.3, n = 3 (Cav1.2 AID), 2 (AID-CEN), 3 (AID-CAP)

T1 sequence (P54286 whole entry): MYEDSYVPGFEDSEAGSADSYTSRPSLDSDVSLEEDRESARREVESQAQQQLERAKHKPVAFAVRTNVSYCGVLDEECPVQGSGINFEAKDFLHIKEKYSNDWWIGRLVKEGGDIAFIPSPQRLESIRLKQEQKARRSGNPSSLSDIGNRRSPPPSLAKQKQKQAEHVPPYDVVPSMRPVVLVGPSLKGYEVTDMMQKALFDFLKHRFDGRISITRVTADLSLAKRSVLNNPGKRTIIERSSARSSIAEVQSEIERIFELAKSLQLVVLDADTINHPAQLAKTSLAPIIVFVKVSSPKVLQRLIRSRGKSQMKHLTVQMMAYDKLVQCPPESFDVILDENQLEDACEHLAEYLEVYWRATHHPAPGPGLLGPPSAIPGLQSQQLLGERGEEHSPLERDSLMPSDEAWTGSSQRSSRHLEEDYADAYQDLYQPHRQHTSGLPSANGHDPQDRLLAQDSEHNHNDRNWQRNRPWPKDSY

CC[C@H](C)[C@H](NC(=O)[C@H](Cc1c[nH]c2ccccc12)NC(=O)[C@@H]1CSCc2cccc(c2)CSC[C@H](NC(=O)[C@H](CC(C)C)NC(=O)[C@H](CC(=O)O)NC(=O)[C@H](CCC(=O)O)NC(=O)[C@H](CCC(=O)O)NC(=O)[C@H](CC(C)C)NC(=O)[C@@H]2CCCN2C(=O)[C@H](CO)NC(=O)[C@H](C)N)C(=O)NCC(=O)N[C@@H](Cc2ccc(O)cc2)C(=O)N[C@@H](CC(C)C)C(=O)N1)C(=O)N[C@H](C(=O)N[C@@H](CCC(N)=O)C(=O)N[C@@H](C)C(=O)N[C@@H](CCC(=O)O)C(N)=O)[C@@H](C)O [AID-CEN] (H-ASPLEEDLCGYLCWITQAE-NH2; linker 9-13 via mXylylene)
Kd (CaVβ2a core; [2]): 5.2 ± 1.5 nM

CC[C@H](C)[C@H](NC(=O)[C@H](Cc1c[nH]c2ccccc12)NC(=O)[C@H](CC(=O)O)NC(=O)[C@H](CC(C)C)NC(=O)[C@H](Cc1ccc(O)cc1)NC(=O)CNC(=O)[C@H](CCCCN)NC(=O)[C@H](CC(C)C)NC(=O)[C@H](CC(=O)O)NC(=O)[C@@H]1CSCc2cccc(c2)CSC[C@H](N)C(=O)N[C@@H](CO)C(=O)N2CCC[C@H]2C(=O)N[C@@H](CC(C)C)C(=O)N[C@@H](CCC(=O)O)C(=O)N1)C(=O)N[C@H](C(=O)N[C@@H](CCC(N)=O)C(=O)N[C@@H](C)C(=O)N[C@@H](CCC(=O)O)C(N)=O)[C@@H](C)O [AID-CAP] (H-CSPLECDLKGYLDWITQAE-NH2; linker 1-6 via mXylylene)
Kd (CaVβ2a core; [2]): 5.1 ± 1.6 nM

CQQLEEDLKGYLDWITQAE-NH2 [AID]
P vs HotA, Figure 7B, E, F (ti300, Imax) (CaV1.2:CaVβ3; 2.8 mM peptide vs 4 mM HotA): < 0.001
P vs HotA, Figure 7C, D (inactivation τ, ΔV1/2) (CaV1.2:CaVβ3; 2.8 mM peptide vs 4 mM HotA): < 0.05
change in channel inactivation kinetics, in words (CaV1.2:CaVβ3; [3]): changed from one having two components to a monoexponential process
current rundown, in words (CaV1.2:CaVβ3; [3]): strongly increased current rundown
A1 (CaV1.2:CaVβ3; [4]): 54.0 ± 2.7%
A2 (CaV1.2:CaVβ3; [4]): 34.1 ± 1.4%
τ1 (CaV1.2:CaVβ3; [4]): 40.0 ± 5.2 ms
τ2 (CaV1.2:CaVβ3; [4]): 354.4 ± 119.2 ms
A1 (CaV1.2:CaVβ3; [5]): 76.9 ± 3.1%
τ1 (CaV1.2:CaVβ3; [5]): 62.6 ± 7.6 ms
ti300, percent inactivation at 300 ms (CaV1.2:CaVβ3; 5 min postinjection, 2.8 mM peptide, +20 mV, mean ± SEM, N = 6 (AID-CAP), 7 (AID)): 73.4 ± 2.0%
V1/2, midpoint of activation (CaV1.2:CaVβ3; [6]): 10.4 ± 2.2 mV
Imax, maximal current amplitude (CaV1.2:CaVβ3; [6]): –0.860 ± 0.096
A1 (CaV1.2:CaVβ3; [7]): 65.0 ± 4.0%
τ1 (CaV1.2:CaVβ3; [7]): 118.2 ± 11.0 ms
ti300, percent inactivation at 300 ms (CaV1.2:CaVβ3; 30 min postinjection, 2.8 mM peptide, +20 mV, mean ± SEM, N = 6 (AID-CAP), 7 (AID)): 49.8 ± 1.9%
V1/2, midpoint of activation (CaV1.2:CaVβ3; [8]): 21.0 ± 2.0 mV
Imax, maximal current amplitude (CaV1.2:CaVβ3; [8]): –0.116 ± 0.010
effect on CaV1.2α1:CaVβ3 interaction, in words (CaV1.2:CaVβ3; 30 min postinjection, AID, AID-CAP 2.8 mM, HotA 4 mM): near complete disruption of the CaV1.2α1:CaVβ3 interaction
Kd (CaVβ2a core; [2]): 6.6 ± 2 nM
ΔH (CaVβ2a core; [9]): –15.6 ± 2.4 kcal mol^–1
ΔS (CaVβ2a core; [9]): –16.7 ± 6.0 cal mol^–1 K^–1
N (binding stoichiometry) (CaVβ2a core; [2]): 0.94 ± 0.07
Kd/Kd CaV1.2 AID (CaVβ2a core; ratio of Kd to that of CaV1.2 AID): 1
CD spectrum / helical content, in words [1]: absent
P vs HotA, all panels of Figure 5 (ti300, A1, ΔV1/2, Imax) (CaV1.2-Y437A:CaVβ2a): < 0.001
effect on inactivation / CaVβ binding, in words (CaV1.2-Y437A:CaVβ2a; 30 min postinjection): interfered completely with CaVβ binding
rundown of Imax (CaV1.2-Y437A:CaVβ2a; over 30 min postinjection, vs water or HotA): consistently higher rundown
ti300, percent inactivation at 300 ms (CaV1.2-Y437A:CaVβ2a; 5 min postinjection): 64.9 ± 1.9%
A1, relative amplitude of fast inactivation component (CaV1.2-Y437A:CaVβ2a; 5 min postinjection): 48.5 ± 1.8%
A2, relative amplitude of second inactivation component (CaV1.2-Y437A:CaVβ2a; 5 min postinjection): 24.1 ± 1.6%
τ1, fast inactivation time constant (CaV1.2-Y437A:CaVβ2a; 5 min postinjection): 35.0 ± 1.5 ms
τ2, second inactivation time constant (CaV1.2-Y437A:CaVβ2a; 5 min postinjection): 251.5 ± 16.1 ms
V1/2, midpoint of activation (CaV1.2-Y437A:CaVβ2a; 5 min postinjection): 2.9 ± 1.7 mV
Imax, maximal current amplitude (CaV1.2-Y437A:CaVβ2a; 5 min postinjection): –0.883 ± 0.111
ti300, percent inactivation at 300 ms (CaV1.2-Y437A:CaVβ2a; 30 min postinjection): 44.8 ± 2.1%
A1, relative amplitude of fast inactivation component (CaV1.2-Y437A:CaVβ2a; 30 min postinjection): 24.5 ± 3.0%
A2, relative amplitude of second inactivation component (CaV1.2-Y437A:CaVβ2a; 30 min postinjection): 31.0 ± 1.9%
τ1, fast inactivation time constant (CaV1.2-Y437A:CaVβ2a; 30 min postinjection): 53.3 ± 14.4 ms
τ2, second inactivation time constant (CaV1.2-Y437A:CaVβ2a; 30 min postinjection): 304.0 ± 50.9 ms
V1/2, midpoint of activation (CaV1.2-Y437A:CaVβ2a; 30 min postinjection): 15.1 ± 2.0 mV
Imax, maximal current amplitude (CaV1.2-Y437A:CaVβ2a; 30 min postinjection): –0.242 ± 0.021
